The values below are quoted from earlier work in PMC9729070 (Bioorganic & medicinal chemistry letters, 2022).

The conditions of data set [1]: Phase I clinical trials.
The conditions of data set [2]: CRPC patients.

Consider `O=C(Nc1ccc([N+](=O)[O-])cc1Cl)c1cc(Cl)ccc1O` [Niclosamide (1), Niclosamide], for which the bioavailability entry in data set [1] is on record as “unacceptable bioavailability”.

With `CNC(=O)c1ccc(N2C(=S)N(c3ccc(C#N)c(C(F)(F)F)c3)C(=O)C2(C)C)cc1F` [enzalutamide (Xtandi), enzalutamide], the survival time prolongation entry in data set [2] is listed as “five”.
